The values that follow are results of earlier work, collected in patent US20200069786A1, “COMPOSITION AND PROCESS FOR PREPARING VACCINE” (TREOS BIO ZRT., priority 2018, published 2020).

The series deals with subjects of 64 clinical studies. To be noted: published clinical trials, cited from earlier work.

With Iplilimumab (NYESO-1 specific response), where the note is “proportion of subjects in the study population with T cell responses induced by the study vaccine”, the IRR is 72%. Also, the ORR (proportion of subjects with objective response (complete and partial response) after vaccination) was 25%.
